# Results reported in patent publication US11718628B2, “SREBP inhibitors comprising a 6-membered central ring” (Capulus Therapeutics, LLC, priority 2018, dated 2023).
# Experiments:
# SREBP = assay: Reporter screening assay (SRE-luciferase reporter construct); format: cell-based; settings: Homo sapiens; SREBPv1 reporter cell line HepG2, 24 hours, 0.01 uM to 10 uM; read-out: Reporter Screening IC50 (nM) Activity Range
# Procedure: This assay was used to evaluate the effect on transcriptional activity SREBP of the compounds synthesized according to Examples 1-16, 20, and 22, using an SRE-luciferase reporter construct. On day 1, 10,000 cells were seeded in a 96 well (white) plate as per the plate map in Growth media without antibiotics. Cells were incubated at 37° C. for 8 hours. After 8 hours, cells were washed with DPBS for complete removal of FBS. DPBS was completely removed and Growth media was replaced with phenol free treatment medium (90 μl) with different FBS concentrations. The cells were then incubated at 37° C. for 24 hours with varying doses (0.01 uM to 10 uM) of compounds. Then a Luciferase assay was performed.
# Reagents for performing Luciferase assay were stored at −20° C. To a tube of lyophilized assay substrate was added 1 mL Substrate Solvent and mixed well. The Substrate tube after reconstitution was covered with aluminum foil so as to keep it protected from light. The assay buffer was thawed to room temperature. To 20 mL Assay Buffer was added 200 μL of reconstituted 100× Substrate and mixed well. The reconstituted substrate as well as the assay solution (buffer+substrate) was protected from light throughout the procedure by keeping it covered with aluminum foil.
# Using a multi-channel pipette, 100 μL Assay Solution (buffer+substrate) was added directly to each sample well in Plate 1, which was incubated for 30 min (plate was covered with aluminum foil). After 30 min incubation, the plate was read for total luminescence. Each well was read for 2 seconds in a plate luminometer. (Microplate reader Envision Microplate reader from Perkin Elmer). Precaution was taken to incubate plate exactly for 30 min prior to reading on the plate reader.
# Materials: SREBPv1 Reporter cell line: HepG2—#32251. Growth Medium: MEM (Corning 10-010), 10% FBS, 1% GlutaMax (Invitrogen Catalog #35050061), […] (Invitrogen Catalog #A1113803) and 1% Penicillin-Streptomycin (Pen-Strep). Treatment Media: Phenol-free MEM (Invitrogen Catalog #51200-038) and 1% GlutaMax (Invitrogen Catalog #35050061). Luciferase Assay: LightSwitch Luciferase Assay Kit (Catalog #32032). LDH assay: Pierce LDH Cytotoxicity Assay Kit (Catalog #SD249616).
# [1] = In vivo pharmacokinetic properties in rats (IV and PO); set-up: species or system male Sprague Dawley rats
# Procedure: (§1) The in vivo pharmacokinetic properties of compounds by both intravenous and oral administration were evaluated in male Sprague Dawley rats or C57BL/6J mice.
# (§2) Animals were housed in cages with clean bedding. Certified rodent diet was provided. Water was available ad libitum. Environmental controls for the animal room were set to maintain a temperature of 22° C. to 25° C., humidity of 40-70% RH, and a 12-hour light/12-hour dark cycle. Normal healthy animals certified by the attending veterinarian were selected and acclimatized for minimum three days prior to initiation of study.
# Surgical Procedure for Jugular Vein Cannulation of Rats: Rats were anaesthetized with a single dose of ketamine 50 mg/kg i.p.+xylazine 6 mg/kg i.p. The right jugular vein was exposed, a loose ligature was placed caudally, and the cranial end of vein was ligated. A small incision was made between the ligatures into which the catheter (polyethylene 50 tubing of internal diameter 0.58 mm and outer diameter 0.96 mm) was inserted. The catheter was secured in place by tying the loose ligature around the catheterized vessel. A small incision was made in the scapular region to serve as the exit site of the catheter. The catheter was subcutaneously tunneled and exteriorized through scapular incision. A stay suture was placed in the scapular area. Patency was tested, and catheter was filled with a locking solution (heparinized saline) and sealed with a stainless steel plug. The incision was then sutured with sterile suturing material. Anti-septic solution was applied to the sutured site and animal was placed back in the home cage.
# (§3) To evaluate pharmacokinetic properties of intravenous delivery, male Sprague Dawley rats were administered 2.00 mg compound/kg animal weight through the tail vein. The concentration of the compound in the plasma of the animals was evaluated at 0.083, 0.25, 0.5, 1, 2, 4, 8, 12 and 24 hr by taking blood samples from the cannulated jugular vein. For the C5Bl/6J mice, blood samples were collected through a capillary, guided in retro-orbital plexus.
# To evaluate pharmacokinetic properties of oral delivery, rats (male Sprague Dawley rats) or mice (C5Bl/6J) were administered 10 mg compound/kg animal weight by mouth. The concentration of compound in the plasma of the animals was evaluated at 0.25, 0.5, 1, 2, 4, 6, 8, 12 and 24 hr by taking blood samples from the cannulated jugular vein (rats) or through a capillary, guided in retro-orbital plexus (mice).
# [2] = In vivo pharmacokinetic properties in mice (IV and PO); set-up: species or system C57BL/6J mice; settings: mice
# Procedure: as §1, §2, §3
# […] The concentration of compound in the plasma of the animals was evaluated at 0.25, 0.5, 1, 2, 4, 6, 8, 12 and 24 hr by taking blood samples from the cannulated jugular vein (rats) or through a capillary, guided in retro-orbital plexus (mice).
# [3] = Half-life in human liver microsomes; format: in vitro ADME; settings: human, liver microsomes, NADPH, 37° C., read-out: G: half-life human liver microsomes
# Procedure: (§4) Half-life Human Microsomes: Compounds were evaluated for stability in human liver microsomes. A 10 mM stock solution of the compound being evaluated was prepared in DMSO and diluted with water:acetonitrile (1:1) to a concentration of 1 mM. A working concentration of 100 μM was prepared by further dilution with water:acetonitrile (1:1). To make the preincubation mixture, 2.5 μL of the diluted compound was combined with 75 μL of human liver microsomes at 3.33 mg/mL, and 85 μL of 100 mM potassium phosphate buffer, and this mixture was pre-incubated for 10 min at 37° C. To make the 60 minute mixture without cofactor, 32.5 μL of the preincubation mixture was combined with 17.5 μL of 100 mM potassium phosphate buffer and incubated for 60 min at 37° C. To make the 0 min sample with cofactor (NADPH), 16.25 μL of the preincubation mixture was combined with 200 μL of acetonitrile containing internal standard and 8.75 μL of cofactor (NADPH). To make the incubation mixture, 62 μL of cofactor (2.85 mM) was combined with the remaining incubation mixture, and incubated for 60 min at 37° C. To prepare the sample mixture to be evaluated, 25 μL incubation mixture was combined with 200 μL of acetonitrile containing internal standard and vortexed for 5 min at 1200 rpm, then centrifuged for 10 min at 4000 rpm. The supernatant was diluted 2 fold with water and injected on LC-MS/MS. The sample mixture was evaluated by LC-MS/MS using 10 mM ammonium acetate with 0.1% FA as the aqueous mobile phase, and methanol as the organic mobile phase.
# Kinetic solubility = format: physicochemical; settings: aqueous buffer, kinetic from dmso stock, pH 7.4 buffer, room temperature, 1.0% DMSO, read-out: I: kinetic solubility class
# Procedure: Kinetic Solubility Procedure: A 10 mM stock solution of a compound was prepared in DMSO, then 4 μL of the stock was added to a deep well plate containing 396 μL of pH 7.4 buffer. The sample plate was vortexed at 800 rpm for 24 h on thermomixer at room temperature. The plate was sealed well during the incubation process. The DMSO content in the sample was 1.0%. The concentration of the evaluated compound in the final incubation was 100 μM. At the end of the incubation period, the sample plate was centrifuged at 4000 rpm for 10 min and analyzed in LC-UV against a calibration curve (CC). Values <10 μg/mL=Low; 10 to 60 μg/mL=Medium; >60 μg/mL=High.
# [4] = Half-life in mouse liver microsomes; format: in vitro ADME; settings: mouse, liver microsomes, read-out: H: half-life of mouse liver microsomes
# Procedure: as §4
# Half-life Mouse Microsomes: Compounds were evaluated in mouse liver microsomes following a similar procedure as described above for human liver microsomes. A similar procedure could be used to evaluate compounds in rat liver microsomes.
Compound,IC50 (SREBP),half-life at 1 µM [3],solubility kinetic at 24 h (Kinetic solubility),half-life at 1 µM [4],further results
"CC(C)(C)c1cc(-c2cc(-c3ccc(C(=O)N4CCC(O)CC4)cc3Cl)ccn2)ccn1 [Compound 1, (4-(2′-(tert-butyl)-[2,4′-bipyridin]-4-yl)-3-chlorophenyl)(4-hydroxypiperidin-1-yl)methanone]",≤ 1000 nM,,,,
"CC(C)(C)c1cc(-c2nccc(-c3ccc(C(=O)N4CCC(O)CC4)cc3Cl)n2)ccn1 [Compound 7, (4-(2-(2-(tert-butyl)pyridin-4-yl)pyrimidin-4-yl)-3-chlorophenyl)(4-hydroxypiperidin-1-yl)methanone]",≤ 1000 nM,,,,
"CC(C)(C)c1cc(-c2cc(-c3ccc(C(=O)N4CCC(O)CC4)cc3Cl)ncn2)ccn1 [Compound 8, (4-(6-(2-(tert-butyl)pyridin-4-yl)pyrimidin-4-yl)-3-chlorophenyl)(4-hydroxypiperidin-1-yl)methanone]",≤ 1000 nM,,,,
"N-(4-(2′-(tert-butyl)-[3,4′-bipyridin]-5-yl)-3-chlorophenyl)-isopropylsulfamoyl urea [Compound Z-812]",,,,,"Intravenous Delivery (IV) CL ([1]; IV, 2 mg/kg): 53.5 mL/min/kg; Intravenous Delivery (IV) T1/2 ([1]; IV, 2 mg/kg): 112 min; Intravenous Delivery (IV) Vd ([1]; IV, 2 mg/kg): 8.65 L/kg; % F (Bioavailability of oral delivery) ([1]; PO 10 mg/kg vs IV 2 mg/kg): 0.65%; Oral Administration (PO) AUC0-last ([1]; PO, 10 mg/kg): 18 ng·h/mL; Oral Administration (PO) T1/2 ([1]; PO, 10 mg/kg): 81 min; Oral Administration (PO) Tmax ([1]; PO, 10 mg/kg): 19.8 min; Intravenous Delivery (IV) AUC0-last ([2]; IV, 2 mg/kg): 1150 ng·h/mL; Intravenous Delivery (IV) CL ([2]; IV, 2 mg/kg): 28.6 mL/min/kg; Intravenous Delivery (IV) T1/2 ([2]; IV, 2 mg/kg): 67.2 min; Intravenous Delivery (IV) Vd ([2]; IV, 2 mg/kg): 2.78 L/kg; % F (Bioavailability of oral delivery) ([2]; PO 10 mg/kg vs IV 2 mg/kg): 52%; Oral Administration (PO) AUC0-last ([2]; PO, 10 mg/kg): 3000 ng·h/mL; Oral Administration (PO) T1/2 ([2]; PO, 10 mg/kg): 253 min; Oral Administration (PO) Tmax ([2]; PO, 10 mg/kg): 15 min"
O=C(c1ccc(-c2cncc(-c3ccnc(C4CC4)c3)c2)c(Cl)c1)N1CCC(F)CC1,,7.28 min,10 to 60 µg/mL,12.4 min,
CC(C)(C)c1cc(-c2cc(-c3ccc(C(=O)N4CCC(O)CC4)cc3Cl)cc3cnccc23)ccn1,,11.4 min,10 to 60 µg/mL,33.8 min,
CC(C)(C)c1cc(-c2cncc(-c3ccc(C(=O)N4CCC[C@@H]4C(C)(C)O)cc3Cl)c2)ccn1,,14 min,10 to 60 µg/mL,64.3 min,

# More lines, main results first:
IC50 (SREBP),half-life at 1 µM [3],solubility kinetic at 24 h (Kinetic solubility),half-life at 1 µM [4],Compound,further results
≤ 500 nM,,,,"CC1(O)CCCN(C(=O)c2ccc(-c3cncc(-c4ccnc(C(C)(C)C)c4)c3)c(Cl)c2)C1 (stereo not drawn) [Compound 22, (4-(2′-(tert-butyl)-[3,4′-bipyridin]-5-yl)-3-chlorophenyl)(3-hydroxy-3-methylpiperidin-1-yl)methanone]",
≤ 1000 nM,,,,"CC(C)(C)c1cc(-c2ccnc(-c3ccc(C(=O)N4CCC(O)CC4)cc3Cl)n2)ccn1 [Compound 6, (4-(4-(2-(tert-butyl)pyridin-4-yl)pyrimidin-2-yl)-3-chlorophenyl)(4-hydroxypiperidin-1-yl)methanone]",
≤ 500 nM,,,,"CC(C)(C)OC(=O)NC1CCCN(C(=O)c2ccc(-c3cncc(-c4ccnc(C(C)(C)C)c4)c3)c(Cl)c2)C1 (stereo not drawn) [Compound 13, tert-butyl (1-(4-(2′-(tert-butyl)-[3,4′-bipyridin]-5-yl)-3-chlorobenzoyl)piperidin-3-yl)carbamate]",
≤ 100 nM,,,,"COC1CCCN(C(=O)c2ccc(-c3cncc(-c4ccnc(C(C)(C)C)c4)c3)c(Cl)c2)C1 (stereo not drawn) [Compound 15, (4-(2′-(tert-butyl)-[3,4′-bipyridin]-5-yl)-3-chlorophenyl)(3-methoxypiperidin-1-yl)methanone]",
≤ 1000 nM,,,,"O=C(c1ccc(-c2cncc(-c3ccnc(C4OCCO4)c3)c2)c(Cl)c1)N1CCC(O)CC1 [Compound 12, (4-(2′-(1,3-dioxolan-2-yl)-[3,4′-bipyridin]-5-yl)-3-chlorophenyl)(4-hydroxypiperidin-1-yl)methanone]",
≤ 1000 nM,,,,"CC(C)(C)c1cc(-c2cccc(-c3ccc(C(=O)N4CCC(O)CC4)cc3Cl)n2)ccn1 [Compound 3, (4-(2′-(tert-butyl)-[2,4′-bipyridin]-6-yl)-3-chlorophenyl)(4-hydroxypiperidin-1-yl)methanone]",
,3.17 min,10 to 60 µg/mL,20 min,CC(C)(C)c1cc(-c2cncc(-c3ccc(C(=O)N4CC5C(O)C5C4)cc3Cl)c2)ccn1 (stereo not drawn),
,20.3 min,10 to 60 µg/mL,68.2 min,CC(C)(C)c1cc(-c2cc(-c3ccc(C(=O)N4CCC(O)CC4)cc3Cl)ncn2)ccn1 [drawing 376],
,1.79 min,10 to 60 µg/mL,120 min,CC(C)(C)c1cc(-c2cncc(-c3ccc(C(=O)N4CC5(CC(O)C5)C4)cc3Cl)c2)ccn1,
,11.3 min,< 10 µg/mL,25.5 min,Cc1c(-c2ccnc(C(C)(C)C)c2)cncc1-c1ccc(C(=O)N2CCCC(O)C2)cc1Cl (stereo not drawn),
